According to US8455439B2, “Antidotes for factor Xa inhibitors and methods of using the same in combination with blood coagulating agents” (Portola Pharmaceuticals, Inc., priority 2008, dated 2013):
Values joined by “and” are separate entries in the source; they are usually repeats but may differ in a detail not shown here. Equal values may be shown once.

Key:
[1] = system: thrombin generation in human plasma; assay: Thrombin generation assay in platelet poor or platelet rich plasma; assay type: biochemical; settings: 250 nM betrixaban, at all rfVIIa concentrations tested (50-200 nM) with tissue factor; FIG. 4
Protocol: PRP and PPP were prepared by spinning the anticoagulated blood at ˜100× gravity or 1000× gravity for 20 minutes, respectively, at room temperature. 75-100 microliter (uL) plasma was mixed with CaCl2 and Z-Gly-Gly-Arg-aminomethylcoumarin (Z-GGR-AMC, a thrombin fluorogenic substrate). Tissue factor (Innovin, Dade Behring) was added to initiate the generation of thrombin. For a typical experiment, the reaction mixture contained 15 millimolar (mM) Ca^2+, 100 micromolar (μM) Z-GGR-AMC, and 0.1 nanomolar (nM) tissue factor (TF) (Innovin). Thrombin formation was monitored continuously at 37° C. by a fluorometric plate reader (Molecular Devices) measuring the relative fluorescence units (RFU). Inhibitor and antidote, when present, were pre-incubated with plasma for 20 minutes at room temperature before initiation of thrombin generation.
PRP and PPP were prepared by spinning the anticoagulated blood at ˜100× gravity or 1000× gravity for 20 minutes, respectively, at room temperature. […] Tissue factor (Innovin, Dade Behring) and CaCl2 were added to initiate the generation of thrombin. […] Thrombin formation was monitored continuously at 37° C. by a fluorometric plate reader (Molecular Devices) measuring the relative fluorescence units (RFU). […]

[2] = system: human platelet poor plasma; assay: Clotting prolongation assay, 96-well plate format (OD405 turbidity change, aPTT reagent); assay type: biochemical; settings: 125 nM betrixaban, no r-Antidote, no FX; FIG. 26
[3] = system: pooled human plasma; assay: aPTT clotting assay, MLA Electra 800 automatic coagulation timer; assay type: biochemical
Protocol: Two clotting assay formats were used to test the effects of factor Xa inhibitors and the antidote on clotting prolongation. […] In the second assay format, aPTT was measured with a conventional coagulation instrument (MLA Electra 800 automatic coagulation timer).
The effect of 1 antiXa Unit/mL LMWH on aPTT prolongation of plasma and the reversal of inhibitory effect was measured by a MLA Electra 800 Automatic coagulation timer. 100 μL pooled citrate anticoagulated human plasma was mixed with enoxaparin and different concentrations of antidote. Prior to measurement of clotting time, aPTT reagent (Actin FS, Dade Behring) and CaCl2 were added per manufacturer's instructions.

[4] = cited from earlier work
[5] = system: pooled human plasma; assay: Prothrombin time (PT) clotting assay, MLA Electra 800 automatic coagulation timer; assay type: biochemical; settings: 1 μM rivaroxaban alone (baseline 12.2 sec)

Compound: [2-({4-[(dimethylamino)iminomethyl]phenyl}carbonylamino)-5-methoxyphenyl]-N-(5-chloro(2-pyridyl))carboxamide [betrixaban]
- inhibition of fXa by betrixaban (thrombin generation) [1]: about 75%
- effect on clotting time [2]: doubled the clotting time
- aPTT ([3]; 300 nM Betrixaban alone): 61.8 s
- aPTT ([3]; 400 nM Betrixaban alone (Table 17)): 66.3 s
- aPTT ([3]; 400 nM betrixaban alone (Example 17, baseline 25.5 sec)): 51.6 ± 0.4 s
- extension of aPTT ([3]; 400 nM betrixaban, FIG. 13): more than two folds

Compound: fIX: human plasma derived blood coagulation factor IX (Haematologic Technologies)
- aPTT ([3]; 258 nM fIX, 400 nM betrixaban): 43.8 s
- correction of aPTT ([3]; 258 nM fIX, 400 nM betrixaban): 15%
- correction of aPTT ([3]; 387 nM fIX, 400 nM betrixaban): 15%
- effect on aPTT in human plasma ([3]; fIX, absence of betrixaban, FIG. 25): slightly reduced aPTT

Compound: O=C(NC[C@H]1CN(c2ccc(N3CCOCC3=O)cc2)C(=O)O1)c1ccc(Cl)s1 [rivaroxaban]
- peak plasma concentrations ([4]; clinically effective doses): ≤ 318 ng/ml and ≤ 730 nM
- therapeutic concentrations ([4]; reported, Kubitza 2005): approximately 600 nM
- PT [5]: 25 ± 0.4 s
